Test results published in patent publication US20220387365A1, “TUCARESOL DERIVATIVES AND USES THEREOF” (BeyondSpring Pharmaceuticals, Inc., priority 2019, published 2022).

Key:
[1] = Stability in C57BL/6 K2EDTA plasma at 22° C. over 1 hour by LC; format: in vitro ADME, mouse; conditions: for Remaining %: mouse plasma, 2,000 ng/mL, 22°C
Procedure: Tucaresol, Compound B02, Compound C01, Compound C02-1, and Compound C02 were dosed once, by IV bolus (3 mg/kg in 20% hydroxyprophyl-13-cyclodextrin with 1 eq NaOH) or PO (10 mg/kg in 1% carboxymethylcellulose/0.1% tween-80 in water), to non-fasted male C57BL/6 mice. Animals were bled from the dorsal metatarsal vein (from the heart for 24 hour time point) for K2-EDTA plasma 0.083 (for IV only), 0.25, 0.5, 1, 2, 4, 8, and 24 hours after dosing. The plasma concentration of the dosed tucaresol or compound were measured by LC/MS/MS (I-CMS-8060 instrument for MS). PK parameters were then calculated with WinNonlin 6.1. For Compounds C01, CO2 and CO2-1, stability in C57BL/6 K2EDTA plasma was also evaluated at 22° C. over 1 hour by utilizing LC.
Compounds C01 and C02-1 are unstable at 22° C.

Hepa 1-6 tumor cells = assay: In vivo efficacy in subcutaneous Hepa 1-6 mouse liver cancer model; parameters: species or system C57BL/6 mice; conditions: p.o.
Procedure: The study evaluated preclinically in vivo therapeutic efficacy of tucaresol and Compound C02 as a single agent in the treatment of subcutaneous Hepa 1-6 liver cancer models in C57BL/6 mice.
Cell Culture: The Hepa 1-6 tumor cells were maintained in vitro as a monolayer culture in DMEM medium supplemented with 10% fetal bovine serum at 37° C. in an atmosphere of 5% CO2 in air. The cells in an exponential growth phase were harvested and counted for tumor inoculation.
Tumor Inoculation: Each C57BL/6 mouse was subcutaneously inoculated at the right flank with Hepa 1-6 tumor cells (5×10^6) in 0.1 ml of PBS for tumor development. The date of tumor cell inoculation was denoted as day 0.
Randomization: The randomization started when the mean tumor size reached approximately 100-150 mm^3 in each model. […]
(§1) After tumor cell inoculation, the animals were checked daily for morbidity and mortality. During routine monitoring, the animals were checked for any effects of tumor growth and treatments on behavior such as mobility, food and water consumption, body weight gain/loss (body weights will be measured twice per week after randomization), eye/hair matting and any other abnormalities. Mortality and observed clinical signs were recorded for individual animals in detail. […]
Tumor growth inhibition (TGI): TGI % is an indication of antitumor activity, and expressed as: TGI (%)=100×(1−T/C). […]

MC-38 tumor cells = assay: In vivo efficacy in subcutaneous MC-38 murine colorectal cancer model (Example 9); parameters: species or system C57BL/6 mice
Procedure: This study evaluated preclinically the in vivo therapeutic efficacy of Compound C02 as a single agent and in combination with anti-PD-1 antibody in the treatment of subcutaneous MC-38 colorectal cancer models in C57BL/6 mice.
Treatment regimen may be changed per BW loss or other adverse effect according to rules set forth and/or client requests. When dosed on the same day, vehicle for CO2 was administered about 1-2 hours after the dosing of anti-PD1 or control IgG.
The […] tumor cells were maintained in vitro as a monolayer culture in RPMI-1640 supplemented with 10% fetal bovine serum at 37° C. in an atmosphere of 5% CO2 in air. The cells in an exponential growth phase were harvested and counted for tumor inoculation. […]
as §1, with “cells” for “cell”
Rectal temperature was recorded without anaesthesia on the day prior to the first dosing and on the day after the last oral dose.

In the case of `O=Cc1c(OCc2ccc(C(=O)O)cc2)cccc1OC1O[C@H](CO)[C@@H](O)[C@H](O)[C@H]1O` (stereo partly shown) [Compound C02], the “mouse plasma stability (in words)” value ([1]; 22° C.) is reported as “initial instability”, the Remaining % ([1]; 0 min) is reported as 100% and the Remaining % ([1]; 5 min) is reported as 62.3%. It also gave a Remaining % ([1]; 15 min) of 79.6%, a Remaining % ([1]; 30 min) of 68.7% and a Remaining % ([1]; 60 min) of 61.7%. The “level of starting at which the compound leveled off” value ([1]; mouse plasma, 22° C., through 1 hour) was 60-70%, the “efficacy of once a day for five days (QD×5) against every-other-day administration” value (Hepa 1-6 tumor cells) was “greater efficacy than every-other-day administration” and the “time of treatment after which the benefits were especially apparent” value (MC-38 tumor cells; QDx5, as a monotherapy or in combination with anti-PD1) was 15 to 20 days. For the same compound, the “dose response of efficacy (in words)” value (MC-38 tumor cells; QDx5 dosing, down to 10 mg/kg QDx5) was “inverse dose response relationship”.
